Data on two compounds can be found in ChEMBL document CHEMBL5653615 (J Biol Chem, 2013).

As a reminder, the inhibition is the change of the read-out against control, counted positive when it falls.

Structures are written as SMILES.

Assay [1] concerns the target T1, Serine/threonine-protein kinase BRSK1 (Homo sapiens) (UniProt Q8TDC3).
T1 sequence (whole entry): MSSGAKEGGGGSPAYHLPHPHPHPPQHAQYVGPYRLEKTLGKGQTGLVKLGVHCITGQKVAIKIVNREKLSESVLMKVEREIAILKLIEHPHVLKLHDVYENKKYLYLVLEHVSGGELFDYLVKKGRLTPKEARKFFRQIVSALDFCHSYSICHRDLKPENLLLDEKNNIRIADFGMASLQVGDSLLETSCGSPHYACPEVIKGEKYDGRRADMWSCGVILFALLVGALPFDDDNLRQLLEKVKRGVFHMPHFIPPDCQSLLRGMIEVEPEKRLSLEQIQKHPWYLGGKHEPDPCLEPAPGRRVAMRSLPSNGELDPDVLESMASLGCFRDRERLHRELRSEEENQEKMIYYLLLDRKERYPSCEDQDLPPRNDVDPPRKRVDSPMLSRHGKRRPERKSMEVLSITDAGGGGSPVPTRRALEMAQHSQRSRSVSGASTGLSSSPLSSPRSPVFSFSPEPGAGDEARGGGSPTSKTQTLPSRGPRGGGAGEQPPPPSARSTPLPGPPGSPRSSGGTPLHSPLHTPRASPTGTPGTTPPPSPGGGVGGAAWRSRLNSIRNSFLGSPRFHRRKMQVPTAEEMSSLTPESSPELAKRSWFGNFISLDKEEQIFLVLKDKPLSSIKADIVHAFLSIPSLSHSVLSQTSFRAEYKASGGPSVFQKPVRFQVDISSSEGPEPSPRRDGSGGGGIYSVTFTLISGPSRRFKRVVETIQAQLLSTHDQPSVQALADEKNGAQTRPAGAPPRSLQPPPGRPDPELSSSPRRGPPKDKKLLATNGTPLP
In words: Inhibition of human BRSK1 at 18.6 nM by HotSpot assay relative to control.

Assay [2] concerns the target T2, Mitogen-activated protein kinase kinase kinase 2 (Homo sapiens) (UniProt Q9Y2U5).
T2 sequence (whole entry): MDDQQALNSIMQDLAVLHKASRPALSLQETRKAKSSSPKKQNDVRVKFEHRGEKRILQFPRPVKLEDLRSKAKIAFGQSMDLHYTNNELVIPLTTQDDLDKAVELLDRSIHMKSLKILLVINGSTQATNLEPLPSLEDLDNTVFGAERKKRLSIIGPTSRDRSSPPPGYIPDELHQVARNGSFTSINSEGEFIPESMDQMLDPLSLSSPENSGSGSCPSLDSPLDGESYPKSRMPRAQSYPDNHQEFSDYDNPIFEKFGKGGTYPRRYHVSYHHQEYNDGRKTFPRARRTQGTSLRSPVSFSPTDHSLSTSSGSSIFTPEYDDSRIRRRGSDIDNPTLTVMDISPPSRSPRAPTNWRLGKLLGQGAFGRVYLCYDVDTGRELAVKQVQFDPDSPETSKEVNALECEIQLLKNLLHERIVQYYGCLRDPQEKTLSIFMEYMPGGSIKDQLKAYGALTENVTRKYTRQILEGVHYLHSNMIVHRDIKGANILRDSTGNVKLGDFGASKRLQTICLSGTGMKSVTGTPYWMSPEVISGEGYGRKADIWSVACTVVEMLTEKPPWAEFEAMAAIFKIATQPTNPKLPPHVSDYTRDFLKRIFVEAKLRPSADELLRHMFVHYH
In words: Inhibition of human MEKK2 at 18.6 nM by HotSpot assay relative to control.

In assay [3] the target is Serine/threonine-protein kinase PLK2 (Homo sapiens) (UniProt Q9NYY3). Kind of assay: Inhibition of human PLK2 at 1.82 nM by HotSpot assay relative to control.
Assay [4] has as its target T3, Serine/threonine-protein kinase TAO1 (Homo sapiens) (UniProt Q7L7X3).
T3 sequence (whole entry): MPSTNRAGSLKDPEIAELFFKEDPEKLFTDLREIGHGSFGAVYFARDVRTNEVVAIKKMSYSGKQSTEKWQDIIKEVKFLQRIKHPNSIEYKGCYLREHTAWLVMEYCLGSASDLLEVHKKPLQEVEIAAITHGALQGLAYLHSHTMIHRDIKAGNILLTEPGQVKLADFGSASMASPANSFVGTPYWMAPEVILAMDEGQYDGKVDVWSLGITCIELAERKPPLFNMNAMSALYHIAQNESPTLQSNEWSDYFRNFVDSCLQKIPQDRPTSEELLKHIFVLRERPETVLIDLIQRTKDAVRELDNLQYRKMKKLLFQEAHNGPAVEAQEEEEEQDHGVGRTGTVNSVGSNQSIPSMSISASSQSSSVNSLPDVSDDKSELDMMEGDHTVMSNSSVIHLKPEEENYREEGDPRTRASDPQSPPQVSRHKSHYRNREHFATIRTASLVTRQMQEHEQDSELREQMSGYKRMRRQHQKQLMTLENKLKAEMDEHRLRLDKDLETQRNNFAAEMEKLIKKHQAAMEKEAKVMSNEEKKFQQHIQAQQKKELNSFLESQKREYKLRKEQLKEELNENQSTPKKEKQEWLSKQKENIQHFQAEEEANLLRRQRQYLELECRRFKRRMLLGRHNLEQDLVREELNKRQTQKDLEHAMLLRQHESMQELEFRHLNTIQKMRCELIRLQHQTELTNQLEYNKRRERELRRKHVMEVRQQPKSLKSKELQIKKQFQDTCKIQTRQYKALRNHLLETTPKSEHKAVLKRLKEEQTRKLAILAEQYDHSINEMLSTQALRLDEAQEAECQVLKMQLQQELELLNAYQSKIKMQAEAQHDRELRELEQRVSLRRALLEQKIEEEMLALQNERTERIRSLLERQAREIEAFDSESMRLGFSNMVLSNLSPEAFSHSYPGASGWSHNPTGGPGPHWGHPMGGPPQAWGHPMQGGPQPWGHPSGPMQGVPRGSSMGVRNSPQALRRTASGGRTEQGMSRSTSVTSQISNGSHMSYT
In words: Inhibition of human TAOK1 at 1.82 nM by HotSpot assay relative to control.

The target in assay [5] is Tyrosine-protein kinase BTK (Homo sapiens) (UniProt Q06187). Kind of assay: Inhibition of human BTK at 1.82 nM by HotSpot assay relative to control.
Tyrosine-protein kinase BTK (Homo sapiens), sequence (Q06187 whole entry): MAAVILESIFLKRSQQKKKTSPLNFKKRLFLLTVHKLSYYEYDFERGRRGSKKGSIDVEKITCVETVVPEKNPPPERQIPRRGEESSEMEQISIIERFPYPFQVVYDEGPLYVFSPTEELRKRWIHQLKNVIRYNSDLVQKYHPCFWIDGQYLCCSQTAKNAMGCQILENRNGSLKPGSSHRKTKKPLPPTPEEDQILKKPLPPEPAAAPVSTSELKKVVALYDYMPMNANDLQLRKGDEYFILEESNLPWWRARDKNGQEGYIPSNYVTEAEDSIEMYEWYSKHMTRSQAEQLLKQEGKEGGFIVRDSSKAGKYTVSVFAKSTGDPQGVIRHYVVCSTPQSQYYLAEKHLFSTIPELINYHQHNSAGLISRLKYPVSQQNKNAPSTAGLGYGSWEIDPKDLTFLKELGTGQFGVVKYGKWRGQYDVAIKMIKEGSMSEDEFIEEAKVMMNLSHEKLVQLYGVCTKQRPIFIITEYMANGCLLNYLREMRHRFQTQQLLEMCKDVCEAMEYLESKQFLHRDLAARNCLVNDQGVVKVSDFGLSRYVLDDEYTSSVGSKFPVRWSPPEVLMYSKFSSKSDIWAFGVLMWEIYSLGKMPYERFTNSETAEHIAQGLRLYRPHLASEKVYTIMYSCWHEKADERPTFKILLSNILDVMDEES

Serine/threonine-protein kinase PLK2 (Homo sapiens), sequence (Q9NYY3 whole entry, looked up): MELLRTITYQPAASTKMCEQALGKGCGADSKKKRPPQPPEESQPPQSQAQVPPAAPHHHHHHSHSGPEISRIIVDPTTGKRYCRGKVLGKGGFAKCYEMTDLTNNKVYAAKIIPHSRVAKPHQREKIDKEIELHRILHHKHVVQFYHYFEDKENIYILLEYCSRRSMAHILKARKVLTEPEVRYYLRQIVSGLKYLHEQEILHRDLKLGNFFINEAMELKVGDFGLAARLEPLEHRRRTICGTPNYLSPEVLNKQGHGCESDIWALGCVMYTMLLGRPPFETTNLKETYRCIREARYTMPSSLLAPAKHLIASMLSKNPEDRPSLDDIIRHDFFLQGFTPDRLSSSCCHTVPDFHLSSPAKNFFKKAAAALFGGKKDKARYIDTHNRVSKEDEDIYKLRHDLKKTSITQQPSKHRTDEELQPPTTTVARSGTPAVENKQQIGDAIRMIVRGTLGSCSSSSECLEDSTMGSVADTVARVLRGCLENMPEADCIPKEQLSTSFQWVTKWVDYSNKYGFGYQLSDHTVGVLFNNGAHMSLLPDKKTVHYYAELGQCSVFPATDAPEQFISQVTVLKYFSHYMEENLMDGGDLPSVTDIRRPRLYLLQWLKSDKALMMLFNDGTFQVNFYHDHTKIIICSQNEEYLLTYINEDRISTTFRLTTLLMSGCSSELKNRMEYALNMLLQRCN

Regarding `C[C@]1(O)C[C@@H](c2nc(-c3ccc4ccc(-c5ccccc5)nc4c3)c3c(N)nccn32)C1`, the inhibition was -2.86% in assay [1] and -2.2% in assay [2].
With `C[C@@]1(C(=O)Nc2ccc(F)nc2)CCCN1c1nc(Nc2cc(C3CC3)n[nH]2)c2cccn2n1`, the inhibition in assay [3] amounted to 1.2%; in assay [4] it was 4.21%; in assay [5] it was 4.42%.
